According to patent publication US20260262643A1, “HERBICIDAL BENZOXAZINES” (FMC CORPORATION, priority 2022, published 2026):

Experiments:
[1] = test system: ryegrass, Italian; assay: Test C preemergence; assay type: in vivo, Lolium multiflorum
In short: (§1)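 Greenhouse herbicide screen, 10-day duration. Test chemicals in solvent/surfactant blend were sprayed onto soil at sowing (pre) or onto 2–10 cm seedlings at one to two leaves (post); injury scored visually against controls, 0 no effect to 100 complete control.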

[2] = test system: rice; assay: Test D flooded paddy test; assay type: in vivo, Oryza sativa; conditions: 250 g ai/ha, applied to paddy water, visual rating after 13 to 14 days, scale 0 to 100 (0 no effect, 100 complete control)
In short: (§2)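 2-leaf plants; flood 3 cm above soil; compound dosed into paddy water; greenhouse 13–14 d; visual rating vs controls, 0–100 (100 = complete control); dash = not tested.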

[3] = test system: ryegrass, Italian; assay: Test C postemergence; assay type: in vivo, Lolium multiflorum; conditions: 10 days, 0 to 100 scale (0 no effect, 100 complete control)
In short: as §1

[4] = test system: blackgrass; assay: Test C postemergence; assay type: in vivo, Alopecurus myosuroides; conditions: 10 days, 0 to 100 scale (0 no effect, 100 complete control)
In short: as §1

[5] = test system: ducksalad; assay: Test D flooded paddy test; assay type: in vivo, Heteranthera limosa; conditions: 250 g ai/ha, applied to paddy water, visual rating after 13 to 14 days, scale 0 to 100 (0 no effect, 100 complete control)
In short: as §2

[6] = test system: barnyardgrass; assay: Test D flooded paddy test; assay type: in vivo, Echinochloa crus-galli; conditions: 250 g ai/ha, applied to paddy water, visual rating after 13 to 14 days, scale 0 to 100 (0 no effect, 100 complete control)
In short: as §2

[7] = test system: ragweed; assay: Test C preemergence; assay type: in vivo, Ambrosia artemisiifolia
In short: as §1

[8] = test system: ragweed; assay: Test C postemergence; assay type: in vivo, Ambrosia artemisiifolia; conditions: 10 days, 0 to 100 scale (0 no effect, 100 complete control)
In short: as §1

[9] = test system: pigweed, palmer; assay: Test C preemergence; assay type: in vivo, Amaranthus palmeri
In short: as §1

[10] = test system: barnyardgrass; assay: Test C preemergence; assay type: in vivo, Echinochloa crusgalli
In short: as §1

[11] = test system: wheat; assay: Test C preemergence; assay type: in vivo, Triticum aestivum
In short: as §1

[12] = test system: green foxtail; assay: Test C postemergence; assay type: in vivo, Setaria viridis; conditions: 10 days, 0 to 100 scale (0 no effect, 100 complete control)
In short: as §1

[13] = test system: wheat; assay: Test C postemergence; assay type: in vivo, Triticum aestivum; conditions: 10 days, 0 to 100 scale (0 no effect, 100 complete control)
In short: as §1

[14] = test system: sedge, umbrella; assay: Test D flooded paddy test; assay type: in vivo, Cyperus difformis; conditions: 250 g ai/ha, applied to paddy water, visual rating after 13 to 14 days, scale 0 to 100 (0 no effect, 100 complete control)
In short: as §2

[15] = test system: corn; assay: Test C postemergence; assay type: in vivo, Zea mays; conditions: 10 days, 0 to 100 scale (0 no effect, 100 complete control)
In short: as §1

[16] = test system: oat, wild; assay: Test C preemergence; assay type: in vivo, Avena fatua
In short: as §1

[17] = test system: pigweed, palmer; assay: Test C postemergence; assay type: in vivo, Amaranthus palmeri; conditions: 10 days, 0 to 100 scale (0 no effect, 100 complete control)
In short: as §1

[18] = test system: kochia; assay: Test C postemergence; assay type: in vivo, Bassia scoparia; conditions: 10 days, 0 to 100 scale (0 no effect, 100 complete control)
In short: as §1

[19] = test system: soybean; assay: Test C preemergence; assay type: in vivo, Glycine max
In short: as §1

[20] = test system: kochia; assay: Test C preemergence; assay type: in vivo, Bassia scoparia
In short: as §1

[21] = test system: green foxtail; assay: Test C preemergence; assay type: in vivo, Setaria viridis
In short: as §1

[22] = test system: barnyardgrass; assay: Test C postemergence; assay type: in vivo, Echinochloa crusgalli; conditions: 10 days, 0 to 100 scale (0 no effect, 100 complete control)
In short: as §1

[23] = test system: corn; assay: Test C preemergence; assay type: in vivo, Zea mays
In short: as §1

[24] = test system: oat, wild; assay: Test C postemergence; assay type: in vivo, Avena fatua; conditions: 10 days, 0 to 100 scale (0 no effect, 100 complete control)
In short: as §1

[25] = test system: horseweed; assay: Test C postemergence; assay type: in vivo, Erigeron canadensis; conditions: 10 days, 0 to 100 scale (0 no effect, 100 complete control)
In short: as §1

[26] = test system: blackgrass; assay: Test C preemergence; assay type: in vivo, Alopecurus myosuroides
In short: as §1

[27] = test system: soybean; assay: Test C postemergence; assay type: in vivo, Glycine max; conditions: 10 days, 0 to 100 scale (0 no effect, 100 complete control)
In short: as §1

[28] = test system: galium; assay: Test C postemergence; assay type: in vivo, Galium aparine; conditions: 10 days, 0 to 100 scale (0 no effect, 100 complete control)
In short: as §1

[29] = 500 g ai/ha, preemergence, 0 to 100 scale (0 no effect, 100 complete control)
[30] = Preemergence, 125 g ai/ha, 0 to 100 scale, 0 no effect, 100 complete control

## Cc1ncn(-c2ccc(F)c(C(=O)N3C[C@H](C)Oc4c(C)cccc43)c2)n1 [Compound 361]
[1]; [29]
  Ryegrass, Italian plant response rating: 80
[1]; [30]
  Plant response rating, Ryegrass, Italian: 80
[2]
  Plant response rating, Rice (Flood): 15
[3]; 500 g ai/ha, postemergence
  Plant response rating, Ryegrass, Italian: 90
[3]; Postemergence, 125 g ai/ha
  Plant response rating, Ryegrass, Italian: 80
[4]; 500 g ai/ha, postemergence
  Plant response rating, Blackgrass: 90
[4]; Postemergence, 125 g ai/ha
  Plant response rating, Blackgrass: 80
[5]
  Plant response rating, Ducksalad (Flood): 70
[6]
  Plant response rating, Barnyardgrass (Flood): 30
[7]; [29]
  Ragweed plant response rating: 70
[7]; [30]
  Plant response rating, Ragweed: 50
[8]; 500 g ai/ha, postemergence
  Plant response rating, Ragweed: 60
[8]; Postemergence, 125 g ai/ha
  Plant response rating, Ragweed: 60
[9]; [29]
  Pigweed, Palmer plant response rating: 100
[9]; [30]
  Plant response rating, Pigweed, Palmer: 90
[10]; [29]
  Barnyardgrass plant response rating: 90
[10]; [30]
  Plant response rating, Barnyardgrass: 80
[11]; [29]
  Wheat plant response rating: 70
[11]; [30]
  Plant response rating, Wheat: 50
[12]; 500 g ai/ha, postemergence
  Plant response rating, Foxtail, Green: 90
[12]; Postemergence, 125 g ai/ha
  Plant response rating, Foxtail, Green: 90
[13]; 500 g ai/ha, postemergence
  Plant response rating, Wheat: 80
[13]; Postemergence, 125 g ai/ha
  Plant response rating, Wheat: 40
[14]
  Plant response rating, Sedge, Umbrella (Flood): 95
[15]; 500 g ai/ha, postemergence
  Plant response rating, Corn: 50
[15]; Postemergence, 125 g ai/ha
  Plant response rating, Corn: 20
[16]; [29]
  Oat, Wild plant response rating: 50
[16]; [30]
  Plant response rating, Oat, Wild: 0
[17]; 500 g ai/ha, postemergence
  Plant response rating, Pigweed, Palmer: 60
[17]; Postemergence, 125 g ai/ha
  Plant response rating, Pigweed, Palmer: 20
[18]; 500 g ai/ha, postemergence
  Plant response rating, Kochia: 80
[18]; Postemergence, 125 g ai/ha
  Plant response rating, Kochia: 70
[19]; [29]
  Soybean plant response rating: 100
[19]; [30]
  Plant response rating, Soybean: 100
[20]; [29]
  Kochia plant response rating: 90
[20]; [30]
  Plant response rating, Kochia: 80
[21]; [29]
  Foxtail, Green plant response rating: 100
[21]; [30]
  Plant response rating, Foxtail, Green: 100
[22]; 500 g ai/ha, postemergence
  Plant response rating, Barnyardgrass: 90
[22]; Postemergence, 125 g ai/ha
  Plant response rating, Barnyardgrass: 70
[23]; [29]
  Corn plant response rating: 10
[23]; [30]
  Plant response rating, Corn: 0
[24]; 500 g ai/ha, postemergence
  Plant response rating, Oat, Wild: 80
[24]; Postemergence, 125 g ai/ha
  Plant response rating, Oat, Wild: 30
[25]; 500 g ai/ha, postemergence
  Plant response rating, Horseweed: 10
[25]; Postemergence, 125 g ai/ha
  Plant response rating, Horseweed: 0
[26]; [29]
  Blackgrass plant response rating: 60
[26]; [30]
  Plant response rating, Blackgrass: 40
[27]; 500 g ai/ha, postemergence
  Plant response rating, Soybean: 100
[27]; Postemergence, 125 g ai/ha
  Plant response rating, Soybean: 100
[28]; 500 g ai/ha, postemergence
  Plant response rating, Galium: 100
[28]; Postemergence, 125 g ai/ha
  Plant response rating, Galium: 100
